In brackets after ≈: the same amount, converted by molar mass. Where two headings read alike, the source gives them in different places.
How the values were obtained:
[1] = tested on: dendritic spines of CA1 pyramidal neurons, dorsal hippocampus; assay: Dendritic spine morphology in dorsal hippocampus (CA1) after 14 days of oral treatment; assay type: in vivo, wild type mice (C57BL/6J); conditions: for Thin Spines (% increase over vehicle) / Total Spines (% increase over vehicle): 14 days, WT mice; for dendritic spine density (in words, earlier studies): Compound 2 at 1, 3, 6 and 20 mg/kg/day, Compound 1 at 10 mg/kg/day
Procedure: Compounds were evaluated to determine whether sub-chronic treatment could produce changes in dendritic spine morphology in the CA1 region of the dorsal hippocampus in wild type (WT) mice. Compounds were administered orally to wild type mice, daily for 14 days. Doses were chosen based on pharmacokinetic data, brain exposure, and potency. Effects of compounds treatments on dendritic spine morphology in the CA1 region of the dorsal hippocampus were then evaluated.
Male C57BL/6J mice (7-8-weeks old, n=7 per group) were dosed orally with Rodin compounds or vehicle (20% HPßCD) daily for 14 days. Doses for compounds were chosen based on exposure data from pharmacokinetic experiments. […] Mice were sacrificed 24 hours after the last dose, and underwent transcardial perfusion for preparation of brain samples.
Mice were anesthetized with chloral hydrate (4% chloral hydrate in saline, 10 ml/kg) before undergoing transcardial perfusion with 4% PFA in 1×PBS (pH7.4, room temperature) at 20 mL/min for 54 seconds. Immediately after the perfusion, mice were decapitated and their brain extracted. Brains were postfixed in scintillation vials containing 4% PFA (5-10 ml) for 4 min. Brains were sectioned using a tissue vibratome (Leica VT1000) to collect sections (300 μm thick) from the anterior to posterior extremes of each brain.
Superresolution laser-scanning confocal microscopy (Zeiss LSM880, Airyscan) was performed using a 63× objective (1.42 NA) to scan individually labeled neurons at high resolution (scan resolution=0.06 um μm/pixel; axial resolution=0.06 um μm/focal step). Target neurons were identified in the brain region of interest by epifluorescence navigation using anatomical location and cell morphology. Microscopy was performed blind to experimental conditions. A minimum of 7 mice were tested in each experimental condition. A minimum of 5 samples per mouse (range=5-6) were measured for each segment.
Blind deconvolution (AutoQuant) was applied to raw three-dimensional digital images which were then analyzed for spine density and morphology by trained analysts. Individual spines were measured manually for (a) head diameter, (b) length, and (c) neck thickness from image Z-stacks using custom-built Afraxis ESP software. Each dendrite was analyzed by 3 (on average) independent analysts. Automated image assignment software distributed images to analysts in a randomized manner and ensured that each analyst performed measurements of near equal numbers of dendrites per group. Analysts were blinded to all experimental conditions (including treatment, brain region, and cell type).
Each identified dendritic spine was measured for (a) spine length, (b) spine head diameter, and (c) neck width. Population distributions of each measure were compiled for each dendritic sample and pooled by group. Raw dendritic spine morphometric values (spine length, head diameter, neck width) were assembled into a scheme used to describe classic spine phenotypes (e.g. mushroom, stubby, etc.). Total spine density was also reported as the sum of the density of all subclasses.
General Observations. […] For adequate study to study comparisons, total spine density data were normalized to % vehicle levels
[formula] Data were then reported as mean+/−SEM of total spine density (% increase from Vehicle).

[2] = Brain and plasma exposure following IV and PO administration to mice; assay type: in vivo; conditions: for Mouse IV-PO (1/10 mpk): F: IV 1 mpk / PO 10 mpk; for clearance / half-life: plasma
Procedure: Compounds were dosed in mice at either 10 mg/kg or 30 mg/kg PO, and were dosed at 1 mg/kg IV. Three animals for collection at each time point for plasma via bleeding at 0.25, 0.5, 1, 4, 12 and 24 h. Terminal bleeding for plasma and sampling for brain at 0.25, 0.5, 1, 4, 12 and 24 h (also three animals per brain exposure time point group). Total of six time points for plasma and six time points for brain.
Plasma: The animal was restrained manually at the designated time points, approximately 150 μL blood/time point was collected into K2EDTA tube via retro orbital puncture or cardiac puncture under anesthesia with Isoflurane. The blood sample was centrifuged (2000 g, 4° C., 5 min) to generate plasma within 30 min after bleeding.
Brain: At the designated time points, a mid-line incision was made in the animals scalp and the skin was retracted. Using small bone cutters and rongeurs, removed the skull overlying the brain. Removed the brain using a spatula and rinse with cold saline. Placed the brain in screw-top tubes, and then stored the tubes under −70° C. until analysis.

[3] = Aqueous kinetic solubility measurement; assay type: physicochemical
Procedure: Compounds were evaluated for their kinetic solubility in buffer or water. Aliquots of 8 μL of reference and test compound stock solutions (10 mM in DMSO) were added into 792 μL of 100 mM phosphate buffer (0.1 M NaPO4, pH 7.4). Final DMSO concentration is 1%. The sample tubes were shaken for 1 hour (1000 rpm) at room temperature. A calibration curve was prepared using 300 μM spiking solution (SS) in MeOH/ACN(4:1) (SS=add 6 μL 10 mM compound in 194 μL MeOH/ACN(4:1)). Samples were centrifuged for 10 min (12000 rpm) to precipitate undissolved particles, and the supernatants were transferred to a new tube or plate. Supernatants were diluted 10 times and 100 times with 100 mM buffer. Samples were then prepared for analysis by LC-MS/MS (Add 5 μL of compound samples (not diluted, 10 times diluted and 100 times diluted) and standard curve samples to 95 μL of ACN containing internal standard. Internal standards used are Propranolol, Ketoconazole, and Tamoxifen.

Row | SMILES | Thin Spines (% increase over vehicle) ([1]; 0.1 mg/kg PO daily) | Total Spines (% increase over vehicle) ([1]; 0.1 mg/kg PO daily) | Thin Spines (% increase over vehicle) ([1]; 1 mg/kg PO daily) | Total Spines (% increase over vehicle) ([1]; 1 mg/kg PO daily) | Thin Spines (% increase over vehicle) ([1]; 3 mg/kg PO daily) | Total Spines (% increase over vehicle) ([1]; 3 mg/kg PO daily) | dendritic spine density (in words, earlier studies) [1] | Mouse IV-PO (1/10 mpk): F [2] | Mouse PO (10 mpk): Brain Cmax ([2]; brain) | Mouse PO (10 mpk): Free brain Cmax ([2]; free brain) | other results
1 | Cc1ncc2c(n1)CN(C(=O)Nc1nc(-c3cccs3)ccc1N)C2 [Compound 2] | 11.3% | 8.1% | 21.2% | 21.4% | 32.2% | 24.7% | increases in dendritic spine density | 100% | 583 ng/g | 173 ng/g | Thin Spines (% increase over vehicle) ([1]; 6 mg/kg PO daily): 35.4%; Total Spines (% increase over vehicle) ([1]; 6 mg/kg PO daily): 15%; Thin Spines (% increase over vehicle) ([1]; 20 mg/kg PO daily): 37.4%; Total Spines (% increase over vehicle) ([1]; 20 mg/kg PO daily): −0.12%; higher brain exposure over the unsubstituted pyrimidine analog ([2]; mouse, relative to Comparator E): > 5 fold; clearance ([2]; 1 mg/kg, mouse, IV 1 mpk, read-out: Mouse IV (1 mpk): Cl (converted)): 69.7 mL/min/kg; half-life ([2]; 1 mg/kg, mouse, IV 1 mpk, read-out: Mouse IV (1 mpk): T1/2 (converted)): 0.839 h; half-life ([2]; 10 mpk, mouse, PO, read-out: Mouse PO (1/10 mpk): T1/2 (converted)): 1.05 h
2 | COCc1cc2c(cn1)CN(C(=O)Nc1nc(-c3ccc(F)cc3F)ccc1N)C2 [Compound 1] | 13.8% | 12.2% | 45.1% | 34.6% | 25.3% | 26.7% | increases in dendritic spine density |  |  |  | solubility (in words) [3]: slightly reduced; solubility at 1 h ([3]; aqueous buffer, kinetic from dmso stock, kinetic, 100 mM phosphate buffer pH 7.4, 1% DMSO): 27 µM (≈ 11.1 µg/mL); Thin Spines (% increase over vehicle) ([1]; 0.3 mg/kg PO daily): 23.2%; Total Spines (% increase over vehicle) ([1]; 0.3 mg/kg PO daily): 21.3%; Thin Spines (% increase over vehicle) ([1]; 10 mg/kg PO daily): 19.9%; Total Spines (% increase over vehicle) ([1]; 10 mg/kg PO daily): 25.1%; Projected Brain Cmax @ 10 mpk ([2]; mouse, 10 mpk, brain): 2460 ng/g; Projected free brain @ 10 mpk ([2]; mouse, 10 mpk, free brain): 1.04 µM; clearance ([2]; 1 mg/kg, mouse, IV, read-out: IV PK Cl (converted)): 11.4 mL/min/kg; half-life ([2]; 1 mg/kg, mouse, IV, read-out: IV PK T ½ (converted)): 2.13 h; half-life ([2]; 10 mpk, mouse, PO, read-out: PK T ½ PO (converted)): 1.97 h
3 | Nc1ccc(-c2cccs2)nc1NC(=O)N1Cc2cncnc2C1 [Comparator E] |  |  |  |  |  |  |  | 49% | 100 ng/g | 35 ng/g | 
4 | Nc1ccc(-c2ccc(F)cc2)nc1NC(=O)N1Cc2cncnc2C1 [Comparator D] |  |  |  |  |  |  |  |  |  |  | Projected Brain Cmax @ 10 mpk (*scaled for comparison) ([2]; mouse, brain, scaled to 10 mpk for comparison): 158* ng/g

Reference: US11286256B2, “Bicyclic inhibitors of histone deacetylase” (Alkermes, Inc., priority 2017, dated 2022)
